Laboratory results taken from US12686690B2, “Macrocyclic urea orexin receptor agonists” (Merck Sharp & Dohme LLC, priority 2020, dated 2026).

Target: T1, hOX2R (Homo sapiens, UniProt O43614)
T1 construct: expressed in transfected cells; host or cells: CHO cells (G418 selection)
T1 sequence (O43614 1-444): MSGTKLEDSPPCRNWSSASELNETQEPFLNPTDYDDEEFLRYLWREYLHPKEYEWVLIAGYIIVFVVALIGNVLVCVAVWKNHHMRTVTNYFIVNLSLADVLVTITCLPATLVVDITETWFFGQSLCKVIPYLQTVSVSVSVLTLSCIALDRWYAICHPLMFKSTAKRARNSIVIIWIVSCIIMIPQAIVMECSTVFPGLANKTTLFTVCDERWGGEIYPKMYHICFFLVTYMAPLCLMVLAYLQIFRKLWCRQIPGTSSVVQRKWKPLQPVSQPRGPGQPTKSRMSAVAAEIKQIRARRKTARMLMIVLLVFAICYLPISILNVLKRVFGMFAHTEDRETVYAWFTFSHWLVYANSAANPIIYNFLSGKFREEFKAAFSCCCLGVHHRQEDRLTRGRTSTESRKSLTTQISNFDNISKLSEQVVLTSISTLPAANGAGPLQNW
Assay: hOX2R IPone assay (orexin receptor agonism)
Format: cell-based
Settings: IPone readout; for hOX2R_Ipone max %act: maximal activation; for EC50: orexin receptor agonist, read-out: hOX2R_IPone EC50

Structure (SMILES)	hOX2R_Ipone max %act [%]	EC50 [nM]
CCN1C(=O)NC(CCOC(F)(F)F)CCCCCOc2nc(cn3ccnc23)-c2cc(ncc2OC)[C@H]1C (single isomer, unassigned) [Example 73A]	100.6	8.6
CCN1C(=O)NC(CCOC(F)(F)F)CCCCCOc2nc(cn3ccnc23)-c2cc(ncc2OC)[C@H]1C (single isomer, unassigned) [Example 73B]	99.6	0.8
CCN1C(=O)N[C@@H](CCC(F)(F)F)CCCCCOc2nc(cn3ccnc23)-c2cc(nc3ccoc23)C1C (single isomer, unassigned) [Example 74A]	99.5	17.3
CCN1C(=O)N[C@@H](CCC(F)(F)F)CCCCCOc2nc(cn3ccnc23)-c2cc(nc3ccoc23)C1C (single isomer, unassigned) [Example 74B]	101.2	0.9
CCN1C(=O)N[C@@H](CCC(F)(F)F)CCCCCOc2nc(cn3cc(C)nc23)-c2cc(nc3ccoc23)C1C (single isomer, unassigned) [Example 75A]	96.6	528
CCN1C(=O)N[C@@H](CCC(F)(F)F)CCCCCOc2nc(cn3cc(C)nc23)-c2cc(nc3ccoc23)C1C (single isomer, unassigned) [Example 75B]	101.4	6
CCN1C(=O)N[C@@H](CCC(F)(F)F)CCCCCOc2nc(cn3c(C)cnc23)-c2cc(nc3ccoc23)C1C (single isomer, unassigned) [Example 76A]	98.9	204
CCN1C(=O)N[C@@H](CCC(F)(F)F)CCCCCOc2nc(cn3c(C)cnc23)-c2cc(nc3ccoc23)C1C (single isomer, unassigned) [Example 76B]	100.4	3.4
CCN1C(=O)N[C@@H](CCC(F)(F)F)CCCCCOc2cc(cc3ccnn23)-c2nc(cnc2OC)C1C (single isomer, unassigned) [Example 80A]	98.9	370
CCN1C(=O)N[C@@H](CCC(F)(F)F)CCCCCOc2cc(cc3ccnn23)-c2nc(cnc2OC)C1C (single isomer, unassigned) [Example 80B]	99.8	2.9
CCN1C(=O)N[C@@H](CCC(F)(F)F)CCCCCOc2nc(cc3ccnn23)-c2cc(ncc2OC)C1C (single isomer, unassigned) [Example 88A]	100.2	67.8
CCN1C(=O)N[C@@H](CCC(F)(F)F)CCCCCOc2nc(cc3ccnn23)-c2cc(ncc2OC)C1C (single isomer, unassigned) [Example 88B]	102.3	0.7
CCN1C(=O)N[C@@H](CCC(F)(F)F)CCCCCOc2nc(cn3ccnc23)-c2cc(c(C)cn2)C1C (single isomer, unassigned) [Example 92A]	67.1	10100
CCN1C(=O)N[C@@H](CCC(F)(F)F)CCCCCOc2nc(cn3ccnc23)-c2cc(c(C)cn2)C1C (single isomer, unassigned) [Example 92B]	99.1	24.2
CCN1C(=O)N[C@@H](CCC(F)(F)F)CCCCCOc2nc(cn3ccnc23)C2=NC=C(S2)C1C (single isomer, unassigned) [Example 94A]	97.9	167
CCN1C(=O)N[C@@H](CCC(F)(F)F)CCCCCOc2nc(cn3ccnc23)C2=NC=C(S2)C1C (single isomer, unassigned) [Example 94B]	100.3	54.4
CCN1C(=O)N[C@@H](CCC(F)(F)F)CCCCCOc2cc(cn3ccnc23)-c2cc(ncn2)C1C (single isomer, unassigned) [Example 96A]	100.3	11.9
CCN1C(=O)N[C@@H](CCC(F)(F)F)CCCCCOc2cc(cn3ccnc23)-c2cc(ncn2)C1C (single isomer, unassigned) [Example 96B]	100.5	2.9
CCN1C(=O)N[C@@H](CCC(F)(F)F)CCCCCOc2nc(cn3ccnc23)C2=NC=C(O2)C1C (single isomer, unassigned) [Example 104A]	60.9	4910

Structure (SMILES)	hOX2R_Ipone max %act [%]	EC50 [nM]
CCN1C(=O)N[C@@H](CCC(F)(F)F)CCCCCOc2nc(cn3ccnc23)C2=NC=C(O2)C1C (single isomer, unassigned) [Example 104B]	101.1	64.1
CCN1C(=O)N[C@@H](CCC(F)(F)F)CCCCCOc2nc(cn3ccnc23)-c2nc(co2)C1C (single isomer, unassigned) [Example 105A]	73.0	1360
CCN1C(=O)N[C@@H](CCC(F)(F)F)CCCCCOc2nc(cn3ccnc23)-c2nc(co2)C1C (single isomer, unassigned) [Example 105B]	100	61.6
CCN1C(=O)NC(CCC(F)(F)F)CCC(F)(F)CCOc2nc(cn3ccnc23)-c2cc(ncc2OC)[C@H]1C (single isomer, unassigned) [Example 121A]	100.4	9.8
CCN1C(=O)NC(CCC(F)(F)F)CCC(F)(F)CCOc2nc(cn3ccnc23)-c2cc(ncc2OC)[C@H]1C (single isomer, unassigned) [Example 121B]	100.7	0.5
CCN1C(=O)NC(C(O)CC(F)(F)F)CCCCCOc2nc(cn3ncnc23)-c2cc(ncc2OC)C1C (single isomer, unassigned) [Example 133]	102.1	4.75
CCN1C(=O)N[C@@H](CCC(F)(F)F)CCC(O)CCOc2nc(cn3ccnc23)-c2cc(cnc2C)[C@H]1C (single isomer, unassigned) [Example 137]	100.7	4.66
CCN1C(=O)N[C@@H](CCC(F)(F)F)COCCCOc2nc(cn3ncnc23)-c2ccnc(c2F)[C@H]1C (single isomer, unassigned) [Example 175]	93.8	9.06
CCN1C(=O)NC2CN(CCCOc3nc(cn4ccnc34)-c3cc(ncc3OC)[C@H]1C)CC2C(F)(F)F (single isomer, unassigned) [Example 212]	99.48	2.79
CCN1C(=O)NC2CN(CCCCOc3nc(cn4ccnc34)-c3cc(ncc3OC)[C@H]1C)CC2C(F)(F)F (single isomer, unassigned) [Example 214]	102.9	3.43
CCN1C(=O)NC(C#N)CCCCCOc2nc(cn3ccnc23)-c2cc(ncc2OC)[C@H]1C (single isomer, unassigned) [Example 224]	99.26	71.2
CCN1C(=O)N[C@@H](CCC(F)(F)F)CCCCOc2nc(cn3ccnc23)-c2cc(ncc2OC)C1C (stereo in doubt) [Example 40, (12S,16R)-13-ethyl-8-methoxy-12-methyl-16-(3,3,3-trifluoropropyl)-12,13,15,16,17,18,19,20-octahydro-14H-6,22-(azeno)-11,7-(metheno)imidazo[2,1-c][1,4,10,13,15]oxatetra-azacycloicosin-14-one]	101.2	1.2
CCN1C(=O)NCCC2CCC(C2)Oc2nc(cn3ccnc23)-c2cccc(c2)C1C [Example 1B, (10R,E)-9-ethyl-10-methyl-3-oxa-7,9-diaza-2(6,8)-imidazo[1,2-a]pyrazina-1(1,3)-benzena-4(1,3)-cyclopentanacyclodecaphan-8-one]	99.5	126
CCN1C(=O)NCCOCCOc2nc(cn3ccnc23)-c2cccc(c2)[C@H]1C [Example 2, (12R)-13-ethyl-12-methyl-12,13,16,17,19,20-hexahydro-6,22-(azeno)-11,7-(metheno)imidazo[1,2-o][1,18,4,6,15]dioxatriaza-cycloicosin-14(15H)-one]	64.8	813
CCN1C(=O)NCCN(C(C)C)CCOc2nc(cn3ccnc23)-c2cccc(c2)[C@H]1C [Example 3, (12R)-13-ethyl-12-methyl-18-(propan-2-yl)-12,13,15,16,17,18,19,20-octahydro-14H-6,22-(azeno)-11,7-(metheno)imidazo[1,2-r][1,4,7,9,18]oxatetraaza-cycloicosin-14-one]	88.8	2500
CCN1C(=O)NCCCOCCOc2nc(cn3ccnc23)-c2cc(ncc2OC)[C@H]1C [Example 7, (12R)-13-ethyl-8-methoxy-12-methyl-12,13,15,16,17,18,20,21-octahydro-14H-6,23-(azeno)-11,7-(metheno)imidazo[2,1-f][1,4,7,13,16,18]dioxatetra-azacyclohenicosin-14-one]	100.6	4.6
CCN1C(=O)NCCOCCCOc2nc(cn3ccnc23)-c2cc(ncc2OC)[C@H]1C [Example 8, (12R)-13-ethyl-8-methoxy-12-methyl-12,13,16,17,20,21-hexahydro-19H-6,23-(azeno)-11,7-(metheno)imidazo[1,2-o][1,18,4,6,9,15]dioxatetra-azacyclohenicosin-14(15H)-one]	100.2	13.6
CCN1C(=O)NCCNCCCOc2cn3ccnc3c(n2)-c2cccc(c2)[C@H]1C [Example 10, (R,E)-4-ethyl-3-methyl-13-oxa-4,6,9-triaza-1(6,8)-imidazo[1,2-a]pyrazina-2(1,3)-benzenacyclotridecaphan-5-one]	97.61	950
